Measured values taken from ChEMBL document CHEMBL3994649, “Piceatannol, a natural trans-stilbene compound, inhibits human glyoxalase I” (Bioorg Med Chem Lett, 2017).
The source made the active and inactive calls. The rule behind the calls is not given here.

Legend:
NCI-H522 [1] = assay: Antiproliferative activity against human NCI-H522 cells after 72 hrs by WST8 assay; format: functional, cell-based; conditions: NCI-H522, 72 h
Lactoylglutathione lyase [2] = biological target: T1, Lactoylglutathione lyase (Homo sapiens, UniProt Q04760); assay: Inhibition of human N-terminal His6-tagged GLO1 expressed in baculovirus infected sf21 cells assessed as reduction in S-D-lactoylglutathione formation measured for 5 mins in presence of glutathione by spectrophotometric method
Target sequence in this assay (Q04760 whole entry): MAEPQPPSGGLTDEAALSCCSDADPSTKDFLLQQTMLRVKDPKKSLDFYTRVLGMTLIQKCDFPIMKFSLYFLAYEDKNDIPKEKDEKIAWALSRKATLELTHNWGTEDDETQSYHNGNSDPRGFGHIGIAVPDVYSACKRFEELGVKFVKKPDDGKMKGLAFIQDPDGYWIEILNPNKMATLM

NCI-H522 [3] = assay: Antiproliferative activity against human NCI-H522 cells overexpressing human GLO1 at 10 to 30 uM after 72 hrs by WST8 assay; format: functional, cell-based
NCI-H522 [4] = assay: Antiproliferative activity against human NCI-H522 cells after 48 hrs by WST8 assay; format: functional, cell-based; conditions: NCI-H522, 48 h
Lactoylglutathione lyase [5] = biological target: T1, Lactoylglutathione lyase; assay: Potency index, ratio of baicalein IC50 to compound IC50 for human N-terminal His6-tagged GLO1 expressed in baculovirus infected sf21 cells
Target sequence in this assay (Q04760 2-184 limits assumed): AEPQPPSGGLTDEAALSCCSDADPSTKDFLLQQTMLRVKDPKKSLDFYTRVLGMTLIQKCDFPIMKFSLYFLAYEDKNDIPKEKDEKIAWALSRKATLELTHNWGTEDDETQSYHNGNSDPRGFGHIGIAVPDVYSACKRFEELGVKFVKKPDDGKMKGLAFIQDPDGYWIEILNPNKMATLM

Lactoylglutathione lyase [6] = biological target: T1, Lactoylglutathione lyase; assay: Inhibition of human N-terminal His6-tagged GLO1 expressed in baculovirus infected sf21 cells assessed as reduction in S-D-lactoylglutathione formation at 100 uM measured for 5 mins in presence of glutathione by spectrophotometric method
Target sequence in this assay (Q04760 2-184 limits assumed): as above

NCI-H522 [7] = assay: Antiproliferative activity against human NCI-H522 cells after 24 hrs by WST8 assay; format: functional, cell-based; conditions: NCI-H522, 24 h
NCI-H460 = assay: Antiproliferative activity against human NCI-H460 cells at 50 uM after 24 to 72 hrs by WST8 assay; format: functional, cell-based

Row | SMILES | EC50 (NCI-H522 [1]) [µM] | IC50 (Lactoylglutathione lyase [2]) [µM] | Activity (NCI-H522 [3]) | EC50 (NCI-H522 [4]) [µM] | Ratio IC50 (Lactoylglutathione lyase [5]) | inhibition (Lactoylglutathione lyase [6]) | EC50 (NCI-H522 [7]) [µM] | Activity (NCI-H460)
1 | Oc1cc(O)cc(/C=C/c2ccc(O)c(O)c2)c1 [PICEATANNOL] | 17 | 0.76 | inactive | 23 | 14 | Active | 53 | inactive
2 | COc1cc(/C=C/c2ccc(OC)c(OC)c2)cc(OC)c1 | – | – | – | – | – | Active | – | –
